Measured values published in the supplement of paper PMC10307832.

Legend:
Assay in all cases: relative viability (nuclei count vs DMSO), 5 days (fraction); higher = more cells survive
ChaGo-K-1 = tested on: ChaGo-K-1
Method in brief: (§1)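 Lung cancer cell lines in 1536-well plates were dosed by pin tool the day after seeding, either with one drug alone or with a fixed anchor-drug dose plus five library-drug doses (not always all listed) in √10 steps. After 5 days, cells were fixed and their nuclei stained in one step (final 0.05% Triton X-100, 1% formaldehyde, 1 ug/ml Hoechst), then counted on 4× images. Relative viability is the nuclei count in treated wells divided by that in vehicle wells. Values are medians of duplicate plates.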

EMC-BAC-2 = tested on: EMC-BAC-2
Method in brief: as §1

LCLC-97TM1 = tested on: LCLC-97TM1
Method in brief: as §1

LXF-289 = tested on: LXF-289
Method in brief: as §1

NCI-H1395 = tested on: NCI-H1395
Method in brief: as §1

NCI-H1651 = tested on: NCI-H1651
Method in brief: as §1

NCI-H1734 = tested on: NCI-H1734
Method in brief: as §1

NCI-H1793 = tested on: NCI-H1793
Method in brief: as §1

NCI-H1915 = tested on: NCI-H1915
Method in brief: as §1

NCI-H1944 = tested on: NCI-H1944
Method in brief: as §1

NCI-H2023 = tested on: NCI-H2023
Method in brief: as §1

NCI-H2087 = tested on: NCI-H2087
Method in brief: as §1

NCI-H2126 = tested on: NCI-H2126
Method in brief: as §1

NCI-H2405 = tested on: NCI-H2405
Method in brief: as §1

NCI-H3122 = tested on: NCI-H3122
Method in brief: as §1

NCI-H322M = tested on: NCI-H322M
Method in brief: as §1

NCI-H441 = tested on: NCI-H441
Method in brief: as §1

NCI-H522 = tested on: NCI-H522
Method in brief: as §1

NCI-H596 = tested on: NCI-H596
Method in brief: as §1

NCI-H650 = tested on: NCI-H650
Method in brief: as §1

NCI-H661 = tested on: NCI-H661
Method in brief: as §1

NCI-H838 = tested on: NCI-H838
Method in brief: as §1

PC-14 = tested on: PC-14
Method in brief: as §1

SW 1573 = tested on: SW 1573
Method in brief: as §1

UMC-11 = tested on: UMC-11
Method in brief: as §1

**Q.** `Nc1cccc2c1CN(C1CCC(=O)NC1=O)C2=O` (stereo unspecified) [Lenalidomide] + O=C(c1cc(Cc2n[nH]c(=O)c3ccccc23)ccc1F)N1CCN(C(=O)C2CC2)CC1 [Olaparib] (partner 8 µM) was tested. Which relative viability (ChaGo-K-1; first compound 0.253 µM) did it give?
**A.** 0.387

**Q.** What about the relative viability (ChaGo-K-1; first compound 0.8 µM) of the same compound?
**A.** 0.407

**Q.** What about the relative viability (ChaGo-K-1; first compound 2.53 µM) of the same compound?
**A.** 0.421

**Q.** What about the relative viability (ChaGo-K-1; first compound 8 µM) of the same compound?
**A.** 0.478

**Q.** And the relative viability (EMC-BAC-2; first compound 0.253 µM)?
**A.** 0.479

**Q.** What about the relative viability (EMC-BAC-2; first compound 0.8 µM) of the same compound?
**A.** 0.395

**Q.** And the relative viability (EMC-BAC-2; first compound 2.53 µM)?
**A.** 0.52

**Q.** And the relative viability (EMC-BAC-2; first compound 8 µM)?
**A.** 0.461

**Q.** And the relative viability (LCLC-97TM1; first compound 0.253 µM)?
**A.** 0.403

**Q.** What about the relative viability (LCLC-97TM1; first compound 0.8 µM) of the same compound?
**A.** 0.38

**Q.** What about the relative viability (LCLC-97TM1; first compound 2.53 µM) of the same compound?
**A.** 0.433

**Q.** What about the relative viability (LCLC-97TM1; first compound 8 µM) of the same compound?
**A.** 0.36

**Q.** What about the relative viability (LXF-289; first compound 0.253 µM) of the same compound?
**A.** 1.04

**Q.** And the relative viability (LXF-289; first compound 0.8 µM)?
**A.** 1.17

**Q.** And the relative viability (LXF-289; first compound 2.53 µM)?
**A.** 1.24

**Q.** And the relative viability (LXF-289; first compound 8 µM)?
**A.** 1.16

**Q.** And the relative viability (NCI-H1395; first compound 0.253 µM)?
**A.** 0.453

**Q.** And the relative viability (NCI-H1395; first compound 2.53 µM)?
**A.** 0.523

**Q.** What about the relative viability (NCI-H1395; first compound 8 µM) of the same compound?
**A.** 0.458

**Q.** What about the relative viability (NCI-H1651; first compound 0.253 µM) of the same compound?
**A.** 0.153

**Q.** And the relative viability (NCI-H1651; first compound 0.8 µM)?
**A.** 0.169

**Q.** What about the relative viability (NCI-H1651; first compound 2.53 µM) of the same compound?
**A.** 0.219

**Q.** What about the relative viability (NCI-H1651; first compound 8 µM) of the same compound?
**A.** 0.194

**Q.** And the relative viability (NCI-H1734; first compound 0.253 µM)?
**A.** 0.305

**Q.** What about the relative viability (NCI-H1734; first compound 0.8 µM) of the same compound?
**A.** 0.582

**Q.** What about the relative viability (NCI-H1734; first compound 2.53 µM) of the same compound?
**A.** 0.651

**Q.** And the relative viability (NCI-H1734; first compound 8 µM)?
**A.** 0.576

**Q.** And the relative viability (NCI-H1793; first compound 0.253 µM)?
**A.** 0.863

**Q.** And the relative viability (NCI-H1793; first compound 2.53 µM)?
**A.** 1.07

**Q.** And the relative viability (NCI-H1793; first compound 8 µM)?
**A.** 0.539

**Q.** What about the relative viability (NCI-H1915; first compound 0.253 µM) of the same compound?
**A.** 0.265

**Q.** And the relative viability (NCI-H1915; first compound 0.8 µM)?
**A.** 0.263

**Q.** And the relative viability (NCI-H1915; first compound 2.53 µM)?
**A.** 0.284

**Q.** What about the relative viability (NCI-H1915; first compound 8 µM) of the same compound?
**A.** 0.272

**Q.** And the relative viability (NCI-H1944; first compound 0.253 µM)?
**A.** 0.43

**Q.** And the relative viability (NCI-H1944; first compound 2.53 µM)?
**A.** 0.443

**Q.** And the relative viability (NCI-H1944; first compound 8 µM)?
**A.** 0.415

**Q.** And the relative viability (NCI-H2023; first compound 0.253 µM)?
**A.** 0.46

**Q.** What about the relative viability (NCI-H2023; first compound 0.8 µM) of the same compound?
**A.** 0.469

**Q.** What about the relative viability (NCI-H2023; first compound 2.53 µM) of the same compound?
**A.** 0.492

**Q.** What about the relative viability (NCI-H2023; first compound 8 µM) of the same compound?
**A.** 0.453

**Q.** And the relative viability (NCI-H2087; first compound 0.253 µM)?
**A.** 0.562

**Q.** And the relative viability (NCI-H2087; first compound 2.53 µM)?
**A.** 0.689

**Q.** And the relative viability (NCI-H2087; first compound 8 µM)?
**A.** 0.685

**Q.** And the relative viability (NCI-H2126; first compound 0.253 µM)?
**A.** 0.934

**Q.** What about the relative viability (NCI-H2126; first compound 0.8 µM) of the same compound?
**A.** 0.857

**Q.** What about the relative viability (NCI-H2126; first compound 2.53 µM) of the same compound?
**A.** 0.983

**Q.** What about the relative viability (NCI-H2126; first compound 8 µM) of the same compound?
**A.** 0.854

**Q.** What about the relative viability (NCI-H2405; first compound 0.253 µM) of the same compound?
**A.** 0.866

**Q.** And the relative viability (NCI-H2405; first compound 0.8 µM)?
**A.** 0.877

**Q.** And the relative viability (NCI-H2405; first compound 2.53 µM)?
**A.** 0.879

**Q.** What about the relative viability (NCI-H2405; first compound 8 µM) of the same compound?
**A.** 0.86

**Q.** And the relative viability (NCI-H3122; first compound 0.253 µM)?
**A.** 0.596

**Q.** And the relative viability (NCI-H3122; first compound 0.8 µM)?
**A.** 0.579

**Q.** What about the relative viability (NCI-H3122; first compound 2.53 µM) of the same compound?
**A.** 0.623

**Q.** What about the relative viability (NCI-H3122; first compound 8 µM) of the same compound?
**A.** 0.745

**Q.** What about the relative viability (NCI-H322M; first compound 0.253 µM) of the same compound?
**A.** 0.831

**Q.** And the relative viability (NCI-H322M; first compound 0.8 µM)?
**A.** 0.736

**Q.** And the relative viability (NCI-H322M; first compound 2.53 µM)?
**A.** 0.886

**Q.** What about the relative viability (NCI-H322M; first compound 8 µM) of the same compound?
**A.** 0.945

**Q.** What about the relative viability (NCI-H441; first compound 0.253 µM) of the same compound?
**A.** 0.471

**Q.** And the relative viability (NCI-H441; first compound 0.8 µM)?
**A.** 0.502

**Q.** And the relative viability (NCI-H441; first compound 2.53 µM)?
**A.** 0.625

**Q.** What about the relative viability (NCI-H441; first compound 8 µM) of the same compound?
**A.** 0.577

**Q.** And the relative viability (NCI-H522; first compound 0.253 µM)?
**A.** 0.676

**Q.** What about the relative viability (NCI-H522; first compound 0.8 µM) of the same compound?
**A.** 0.672

**Q.** What about the relative viability (NCI-H522; first compound 2.53 µM) of the same compound?
**A.** 0.58

**Q.** What about the relative viability (NCI-H522; first compound 8 µM) of the same compound?
**A.** 0.608

**Q.** And the relative viability (NCI-H596; first compound 0.253 µM)?
**A.** 0.758

**Q.** And the relative viability (NCI-H596; first compound 0.8 µM)?
**A.** 0.705

**Q.** What about the relative viability (NCI-H596; first compound 2.53 µM) of the same compound?
**A.** 0.77

**Q.** What about the relative viability (NCI-H596; first compound 8 µM) of the same compound?
**A.** 0.77

**Q.** What about the relative viability (NCI-H650; first compound 0.253 µM) of the same compound?
**A.** 0.384

**Q.** What about the relative viability (NCI-H650; first compound 0.8 µM) of the same compound?
**A.** 0.294

**Q.** And the relative viability (NCI-H650; first compound 2.53 µM)?
**A.** 0.544

**Q.** What about the relative viability (NCI-H650; first compound 8 µM) of the same compound?
**A.** 0.369

**Q.** And the relative viability (NCI-H661; first compound 0.253 µM)?
**A.** 0.725

**Q.** And the relative viability (NCI-H661; first compound 0.8 µM)?
**A.** 0.756

**Q.** And the relative viability (NCI-H661; first compound 2.53 µM)?
**A.** 0.735

**Q.** What about the relative viability (NCI-H661; first compound 8 µM) of the same compound?
**A.** 0.704

**Q.** And the relative viability (NCI-H838; first compound 0.253 µM)?
**A.** 0.75

**Q.** And the relative viability (NCI-H838; first compound 0.8 µM)?
**A.** 0.774

**Q.** And the relative viability (NCI-H838; first compound 2.53 µM)?
**A.** 0.781

**Q.** And the relative viability (NCI-H838; first compound 8 µM)?
**A.** 0.79

**Q.** And the relative viability (PC-14; first compound 0.253 µM)?
**A.** 0.302

**Q.** And the relative viability (PC-14; first compound 0.8 µM)?
**A.** 0.243

**Q.** What about the relative viability (PC-14; first compound 2.53 µM) of the same compound?
**A.** 0.374

**Q.** And the relative viability (PC-14; first compound 8 µM)?
**A.** 0.436

**Q.** What about the relative viability (SW 1573; first compound 0.253 µM) of the same compound?
**A.** 0.492

**Q.** What about the relative viability (SW 1573; first compound 0.8 µM) of the same compound?
**A.** 0.545

**Q.** What about the relative viability (SW 1573; first compound 2.53 µM) of the same compound?
**A.** 0.468

**Q.** And the relative viability (SW 1573; first compound 8 µM)?
**A.** 0.606

**Q.** And the relative viability (UMC-11; first compound 0.253 µM)?
**A.** 0.398

**Q.** And the relative viability (UMC-11; first compound 0.8 µM)?
**A.** 0.695

**Q.** What about the relative viability (UMC-11; first compound 2.53 µM) of the same compound?
**A.** 0.416

**Q.** What about the relative viability (UMC-11; first compound 8 µM) of the same compound?
**A.** 0.405
